Measurements published in ChEMBL document CHEMBL1153028, “QSAR study on maximal inhibition (Imax) of quaternary ammonium antagonists for S-(-)-nicotine-evoked dopamine release from dopaminergic nerve terminals in rat striatum” (Bioorg Med Chem, 2009).
Numbered stars: 1 amine (or outer) side, 2 acyl side, 3 side chain; on linkers, the order of the positions; unused ones are H or OH. Bridge positions count the residues as written; N and C are the ends. Peptide text beside a SMILES is read from it. X1 = NC(=O)[C@@H](CN[*:2])CS[*:1]

System: not listed separately
Experiment: Antagonist activity at nAChR in Sprague-Dawley rat striatal slices assessed as inhibition of S(-)-nicotine-evoked [3H]dopamine overflow at 100 uM by liquid scintillation counting
Format: functional

Going from CCCCCCCCCCCC[n+]1ccc2c(c1)[C@H]1[C@@H](CC2)CCN1C.[I-] to CCCCCCCCCCC[n+]1ccc2c(c1)[C@H]1[C@@H](CC2)CCN1C.[I-], the Imax rises from 62% to 72%.

Compared with Cc1ccc[n+](CCCCCCCCCC[n+]2cccc(C)c2)c1.[I-].[I-], Cc1ccc[n+](CCCCCCCC[n+]2cccc(C)c2)c1.[I-].[I-] is lower in Imax: 63% for the first, 53% for the second.

Compared with CCCCC#CCC[n+]1cccc([C@@H]2CCCN2C)c1.[Br-], CCCCCCC#CCC[n+]1cccc([C@@H]2CCCN2C)c1.[Br-] is lower in Imax: 47% for the first, 29% for the second.

Going from CCCCC/C=C/CCC[n+]1cccc([C@@H]2CCCN2C)c1.[Br-] to CCCC/C=C\CC[n+]1cccc([C@@H]2CCCN2C)c1.[Br-], the Imax falls from 85% to 83%.

Going from Cc1ccc[n+](CCCCCCC[n+]2cccc(C)c2)c1.[Br-].[Br-] to Cc1ccc[n+](CCCCCCCCC[n+]2cccc(C)c2)c1.[Br-].[Br-], the Imax rises from 54% to 63%.

First: CCCCCCCCC[n+]1cccc2c1CC[C@@H]1CCN(C)[C@H]21.[I-]
Second: CCCCCCCCCC[n+]1cccc2c1CC[C@@H]1CCN(C)[C@H]21.[I-]
The Imax of the first is lower: 86% for the first, 93% for the second.

Going from CNC1CCCc2ccncc21.Cl (configuration not stated) to Cl.NC1CCCc2ccncc21 (configuration not stated), the Imax falls from 57% to 56%.

First: [I-].[I-].c1ccc2c[n+](CCCCCC[n+]3ccc4ccccc4c3)ccc2c1
Second: [I-].[I-].c1ccc2c[n+](CCCCCCCC[n+]3ccc4ccccc4c3)ccc2c1
The Imax of the first is lower: 47% for the first, 74% for the second.

First: CCCCCCCCC[n+]1cccc([C@@H]2CCCN2C)c1.[I-]
Second: CCCCCCCC[n+]1cccc([C@@H]2CCCN2C)c1.[I-]
The Imax of the first is higher: 100% for the first, 88% for the second.

First: C=CCCCCCC[n+]1cccc([C@@H]2CCCN2C)c1.[Br-]
Second: C=CCCCCCCCC[n+]1cccc([C@@H]2CCCN2C)c1.[Br-]
The Imax of the first is higher: 87% for the first, 72% for the second.

First: CCCCCCCCC[n+]1ccc2c(c1)[C@H]1[C@@H](CC2)CCN1C.[I-]
Second: CCCCCCCCCC[n+]1ccc2c(c1)[C@H]1[C@@H](CC2)CCN1C.[I-]
The Imax of the first is lower: 56% for the first, 67% for the second.

Compared with [Br-].[Br-].c1ccc2c(c1)ccc[n+]2CCCCCCCCC[n+]1cccc2ccccc21, [I-].[I-].c1ccc2c(c1)ccc[n+]2CCCCCCCCCC[n+]1cccc2ccccc21 is higher in Imax: 58% for the first, 76% for the second.

Going from CCCCCCCCCCC[n+]1cccc2c1CC[C@@H]1CCN(C)[C@H]21.[I-] to CCCCCCCCCCCC[n+]1cccc2c1CC[C@@H]1CCN(C)[C@H]21.[I-], the Imax falls from 79% to 25%.

First: CCCCCCCCCCCC[n+]1cccc([C@@H]2CCCN2C)c1.[I-]
Second: CCCCCCC[n+]1cccc([C@@H]2CCCN2C)c1.[I-]
The Imax of the first is higher: 95% for the first, 75% for the second.

Going from CCCC[n+]1ccccc1.[I-] to CCCCC[n+]1ccccc1.[I-], the Imax rises from 2% to 44%.

First: [Br-].[Br-].c1ccc2c[n+](CCCCCCCCC[n+]3ccc4ccccc4c3)ccc2c1
Second: [Br-].[Br-].c1ccc2c[n+](CCCCCCCCCCC[n+]3ccc4ccccc4c3)ccc2c1
The Imax of the first is lower: 0% for the first, 55% for the second.

Going from [I-].[I-].c1cc[n+](CCCCCCCC[n+]2ccccc2)cc1 to [I-].[I-].c1cc[n+](CCCCCCCCCC[n+]2ccccc2)cc1, the Imax rises from 0% to 27%.

Compared with CCCCCC[n+]1ccccc1.[I-], CCCCCCC[n+]1ccccc1.[I-] is lower in Imax: 21% for the first, 0% for the second.

Going from CN1CCC[C@@H]1c1ccc[n+](CCCCCCCCCCCC[n+]2cccc([C@@H]3CCCN3C)c2)c1.[Br-].[Br-] to Cc1ccc[n+](CCCCCCCCCCCC[n+]2cccc(C)c2)c1.[Br-].[Br-], the Imax rises from 38% to 78%.

First: [I-].[I-].c1ccc2c(c1)ccc[n+]2CCCCCC[n+]1cccc2ccccc21
Second: [I-].[I-].c1ccc2c(c1)ccc[n+]2CCCCCCCC[n+]1cccc2ccccc21
The Imax of the first is lower: 55% for the first, 71% for the second.

Compared with CCCC[n+]1cccc([C@@H]2CCCN2C)c1.[I-], CCC[n+]1cccc([C@@H]2CCCN2C)c1.[I-] is lower in Imax: 80% for the first, 58% for the second.

Going from CCCCCCCC[n+]1ccc2c(c1)[C@H]1[C@@H](CC2)CCN1C.[I-] to CCCCCCCC[n+]1cccc2c1CC[C@@H]1CCN(C)[C@H]21.[I-], the Imax rises from 60% to 88%.

Going from CN(C)C1CCCc2ncccc21.Cl (configuration not stated) to Cl.NC1CCCc2ncccc21 (configuration not stated), the Imax rises from 53% to 69%.

Going from CCCCCC[n+]1cccc([C@@H]2CCCN2C)c1.[I-] to CCCC/C=C/CC[n+]1cccc([C@@H]2CCCN2C)c1.[Br-], the Imax falls from 80% to 79%.

Compared with [Br-].[Br-].c1ccc2c(c1)ccc[n+]2CCCCCCCCCCCC[n+]1cccc2ccccc21, [Br-].[Br-].c1ccc2c[n+](CCCCCCCCCCCC[n+]3ccc4ccccc4c3)ccc2c1 is higher in Imax: 52% for the first, 53% for the second.

Going from CNC1CCCc2ncccc21.Cl (configuration not stated) to CN(C)C1CCCc2ccncc21.Cl (configuration not stated), the Imax falls from 87% to 68%.

Going from [I-].[I-].c1ccc2c[n+](CCCCCCCCCC[n+]3ccc4ccccc4c3)ccc2c1 to Cc1ccc[n+](CCCCCCCCCCC[n+]2cccc(C)c2)c1.[Br-].[Br-], the Imax rises from 65% to 68%.

First: CC[n+]1ccccc1.[I-]
Second: CCC[n+]1ccccc1.[I-]
The Imax of the first is lower: 0% for the first, 22% for the second.

Going from CCCCCCCCCCCCCCCCCCCC[n+]1ccccc1.[Br-] to CCCCCCCCCCCCCCC[n+]1ccccc1.[I-], the Imax falls from 60% to 58%.

CN1CCC[C@H]1c1ccc[n+](Cc2ccccc2)c1.[Br-] and C=CC[n+]1cccc([C@@H]2CCCN2C)c1.[I-] are the same in Imax: 0% for the first, 0% for the second.

First: [I-].[I-].c1cc[n+](CCCCC[n+]2ccccc2)cc1
Second: [Br-].[Br-].c1cc[n+](CCCCCCCCC[n+]2ccccc2)cc1
The Imax of the first is lower: 0% for the first, 28% for the second.

Compared with C=CCCCCCCCCC[n+]1cccc([C@@H]2CCCN2C)c1.[Br-], CCCCCCCCCC[n+]1cccc(C)c1.[I-] is lower in Imax: 87% for the first, 73% for the second.

First: Cc1ccc[n+](CCCCCC[n+]2cccc(C)c2)c1.[I-].[I-]
Second: CCCCCCCCCCCC[n+]1cccc(C)c1.[I-]
The Imax of the first is lower: 7% for the first, 63% for the second.

Compared with CNC1(C)C2CCC(C2)C1(C)C (configuration not stated) [MECAMYLAMINE], CN1CCC[C@H]1c1ccc[n+](C)c1.[I-] is lower in Imax: 91% for the first, 0% for the second.

First: [Br-].[Br-].c1cc[n+](CCCCCCCCCCCC[n+]2ccccc2)cc1
Second: CCCCCCCC[n+]1ccccc1.[I-]
The Imax of the first is higher: 91% for the first, 0% for the second.

C[n+]1ccccc1.[I-] gave an Imax of 0%.

Biological target: Neuronal acetylcholine receptor subunit alpha-6 (Mus musculus) (UniProt Q9R0W9)
Sequence (Q9R0W9 whole entry): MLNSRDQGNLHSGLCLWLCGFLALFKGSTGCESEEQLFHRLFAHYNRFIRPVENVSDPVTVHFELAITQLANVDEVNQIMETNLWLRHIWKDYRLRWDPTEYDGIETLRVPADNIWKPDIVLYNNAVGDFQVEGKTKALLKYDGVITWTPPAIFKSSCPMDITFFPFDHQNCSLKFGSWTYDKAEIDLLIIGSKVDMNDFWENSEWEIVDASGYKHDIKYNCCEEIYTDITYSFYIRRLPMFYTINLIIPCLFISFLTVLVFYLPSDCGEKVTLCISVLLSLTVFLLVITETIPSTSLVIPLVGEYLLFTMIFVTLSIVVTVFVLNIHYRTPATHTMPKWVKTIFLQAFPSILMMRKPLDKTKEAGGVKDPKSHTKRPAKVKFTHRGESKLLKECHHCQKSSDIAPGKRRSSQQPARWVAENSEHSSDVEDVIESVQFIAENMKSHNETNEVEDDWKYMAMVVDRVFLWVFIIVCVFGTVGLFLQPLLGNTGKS
Experiment: Displacement of [3H]epibatidine from nAChRalpha6 in mouse brain by autoradiography
Format: tissue-based

With CC(C)C[C@@H]1NC(=O)[C@H](CC(N)=O)NC(=O)[C@H](CO)NC(=O)[C@H](Cc2cnc[nH]2)NC(=O)[C@H](CCC(=O)O)NC(=O)[C@H](CC(C)C)NC(=O)[C@H](Cc2cnc[nH]2)NC(=O)[C@@H]2CSSC[C@H](NC(=O)CN)C(=O)N[C@@H](CSSC[C@@H](C(N)=O)CNC1=O)C(=O)N[C@@H](CO)C(=O)N[C@@H](CC(N)=O)C(=O)N1CCC[C@H]1C(=O)N[C@@H](C(C)C)C(=O)N2 (H-GCCSNPVCHLEHSNL; disulfide 2-8; linker 3-C via X1) the Imax was 62%.
